For 29 compounds, IC50 results are on record in patent US20110301146A1 (ONCOTHERAPY SCIENCE, INC., priority 2008, published 2011).

The experiment deals with T1, GSK-3beta (Homo sapiens, UniProt P49841).
T1 construct: purchased Invitrogen
Kind of experiment: Z'-LYTE kinase assay (FRET, SER/THR 9 peptide). It is filed as biochemical. As to conditions: 0.04 ng/micro-l GSK-3beta (Invitrogen), 2 micro-M SER/THR 9 peptide, 15 micro-M ATP, 1 hour at room temperature, 1% DMSO. The protocol:
The Z′-LYTE kinase assay kit employs a fluorescence resonance energy transfer (FRET) between two fluorophores, coumarin and fluorescein, attached to each end of a substrate peptide.
For 0% phosphorylation control, ATP was omitted from the reaction mixture. For 100% phosphorylation control, SER/THR 9 phosphopeptide was used in place of the SER/THR 9 peptide. Following 1 hour incubation at room temperature, the reaction was stopped by the addition of half assay volume of development solution and further incubated for 1 hour at room temperature. […] The extent of phosphorylation was determined according to the 0% and 100% phosphorylation control samples using the following equation: […]
IC50 values were calculated by nonlinear four parameter fit using SigmaPlot, version 10.0 (Systat Software, Inc.).

T1 sequence (P49841 whole entry): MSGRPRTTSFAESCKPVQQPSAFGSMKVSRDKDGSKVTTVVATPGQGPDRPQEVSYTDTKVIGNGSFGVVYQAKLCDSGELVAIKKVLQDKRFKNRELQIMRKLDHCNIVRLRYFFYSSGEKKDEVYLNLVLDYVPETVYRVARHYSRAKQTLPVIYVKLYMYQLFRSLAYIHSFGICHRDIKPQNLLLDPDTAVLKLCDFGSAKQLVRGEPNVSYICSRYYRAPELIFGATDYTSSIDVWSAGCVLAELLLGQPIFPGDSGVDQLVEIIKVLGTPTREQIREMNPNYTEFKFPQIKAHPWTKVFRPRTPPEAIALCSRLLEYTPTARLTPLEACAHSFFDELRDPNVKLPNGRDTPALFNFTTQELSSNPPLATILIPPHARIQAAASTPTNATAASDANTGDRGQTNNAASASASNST

Consider `O=C(NCC1CCNCC1)c1ccc(O)c2[nH]c(C3CC3)nc12` [Example 5, 2-Cyclopropyl-4-hydroxy-N-(piperidin-4-ylmethyl)-1H-benzo[d]imidazole-7-carboxamide], for which the IC50 – broadly, the concentration at which inhibition is half-maximal – came to 320 nM. This lies in the sub-micromolar range.

For the compound `O=C(NCC1CCCNC1)c1ccc(O)c2[nH]c(C3CC3)nc12` (centres unmarked) [Example 6, 2-Cyclopropyl-4-hydroxy-N-(piperidin-3-yl-methyl)-1H-benzo[d]imidazole-7-carboxamide], half-maximal inhibition (IC50) required 1600 nM.

Take `O=C(NCC1CCCCN1)c1ccc(O)c2[nH]c(C3CC3)nc12` (centres unmarked) [Example 7, 2-Cyclopropyl-4-hydroxy-N-(piperidin-2-ylmethyl)-1H-benzo[d]imidazole-7-carboxamide]: the IC50 was 100 nM.

Take `CN1CCCC(NC(=O)c2ccc(O)c3[nH]c(C4CC4)nc23)C1` (centres unmarked) [Example 8, 2-cyclopropyl-4-hydroxy-N-(1-methylpiperidin-3-yl)-1H-benzo[d]imidazole-7-carboxamide]: the midpoint of inhibition, the IC50, lay at 1300 nM.

On to `O=C(N[C@H]1CCCNC1)c1ccc(O)c2[nH]c(C3CC3)nc12` [Example 9, (S)-2-cyclopropyl-4-hydroxy-N-(piperidin-3-yl)-1H-benzo[d]imidazole-7-carboxamide], for which the IC50 worked out at 100 nM.

With `O=C(NC1CCNCC1)c1ccc(O)c2[nH]c(C3CC3)nc12` [Example 10, 2-cyclopropyl-4-hydroxy-N-(piperidin-4-yl)-1H-benzo[d]imidazole-7-carboxamide], the midpoint of inhibition, the IC50, lay at 30 nM.

Compound `O=C(NC1CCCNC1)c1ccc(O)c2[nH]c(C3CC3)nc12` (centres unmarked) [Example 11, 2-cyclopropyl-4-hydroxy-N-(piperidin-3-yl)-1H-benzo[d]imidazole-7-carboxamide] showed an IC50 of 190 nM. This IC50 lies about 6.3-fold higher than the previous one.

`O=C(NC1CCNC1)c1ccc(O)c2[nH]c(C3CC3)nc12` (centres unmarked) [Example 12, 2-cyclopropyl-4-hydroxy-N-(pyrrolidin-3-yl)-1H-benzo[d]imidazole-7-carboxamide]: the IC50 is 210 nM. This IC50 and that of the compound before are within 1.5-fold of each other.

The compound `O=C(NCC1CNC1)c1ccc(O)c2[nH]c(C3CC3)nc12` [Example 13, N-(azetidin-3-ylmethyl)-2-cyclopropyl-4-hydroxy-1H-benzo[d]imidazole-7-carboxamide] gave an IC50 of 140 nM.

As for `O=C(NCC1CCCCN1)c1ccc(O)c2[nH]c(C3CCCC3)nc12` (centres unmarked) [Example 14, 2-cyclopentyl-4-hydroxy-N-(piperidin-2-ylmethyl)-1H-benzo[d]imidazole-7-carboxamide], the IC50 was found to be 1300 nM.

Consider `O=C(NCC1CCCNC1)c1ccc(O)c2[nH]c(C3CCCC3)nc12` (centres unmarked) [Example 15, 2-Cyclopentyl-4-hydroxy-N-(piperidin-3-ylmethyl)-1H-benzo[d]imidazole-7-carboxamide], for which the IC50 came out at 130 nM.

Take `O=C(N[C@H]1CCCNC1)c1ccc(O)c2[nH]c(C3CCCC3)nc12` [Example 16, (S)-2-Cyclopentyl-4-hydroxy-N-(piperidin-3-yl)-1H-benzo[d]imidazole-7-carboxamide]: the IC50 turned out to be 120 nM.

`O=C(N[C@H]1CCCNC1)c1ccc(O)c2[nH]c(-c3ccccc3)nc12` [Example 17, (S)-4-Hydroxy-2-phenyl-N-(piperidin-3-yl)-1H-benzo[d]imidazole-7-carboxamide] yielded an IC50 of 120 nM.

`O=C(NCC1CCCCN1)c1ccc(O)c2[nH]c(-c3ccccc3)nc12` (centres unmarked) [Example 18, 4-Hydroxy-2-phenyl-N-(piperidin-2-ylmethyl)-1H-benzo[d]imidazole-7-carboxamide] showed an IC50 of 1500 nM.

`O=C(NCC1CCCNC1)c1ccc(O)c2[nH]c(-c3ccccc3)nc12` (centres unmarked) [Example 19, 4-hydroxy-2-phenyl-N-(piperidin-3-ylmethyl)-1H-benzo[d]imidazole-7-carboxamide] gave an IC50 of 130 nM.

Compound `O=C(N[C@H]1CC[C@H](O)CC1)c1ccc(O)c2[nH]c(-c3cccs3)nc12` [Example 20, 7-Hydroxy-N-(4-hydroxycyclohexyl)-2-(thiophen-2-yl)-1H-benzo[d]imidazole-4-carboxamide] displayed an IC50 of 26 nM.

Consider `O=C(c1ccc(O)c2[nH]c(-c3cccs3)nc12)N1CCNCC1` [Example 21, (7-hydroxy-2-[thiophen-2-yl]-1H-benzo[d]imidazol-4-yl)(piperazin-1-yl)methanone], for which the IC50 was 22000 nM.

Compound `O=C(NCCN1CCNCC1)c1ccc(O)c2[nH]c(-c3cccs3)nc12` [Example 36, 7-Hydroxy-N-[2-(piperazin-1-yl)ethyl]-2-(thiophen-2-yl)-1H-benzo[d]imidazole-4-carboxamide] yielded an IC50 of 210 nM.

Take `O=C(NCC1CCCNC1)c1ccc(O)c2[nH]c(-c3cccs3)nc12` (centres unmarked) [Example 39, 7-Hydroxy-N-(piperidin-3-ylmethyl)-2-(thiophen-2-yl)-1H-benzo[d]imidazole-4-carboxamide]: the midpoint of inhibition, the IC50, lay at 8.6 nM.

`O=C(NC1CCNCC1)c1ccc(O)c2[nH]c(-c3cccs3)nc12` [Example 40, 7-Hydroxy-N-(piperidin-4-yl)-2-(thiophen-2-yl)-1H-benzo[d]imidazole-4-carboxamide] gave an IC50 of 18 nM.

On to `CN1CCCC(NC(=O)c2ccc(O)c3[nH]c(-c4cccs4)nc23)C1` (centres unmarked) [Example 41, 7-Hydroxy-N-(1-methylpiperidin-3-yl)-2-(thiophen-2-yl)-1H-benzo[d]imidazole-4-carboxamide], for which the IC50 came to 180 nM.

The compound `O=C(NCC1CCNCC1)c1ccc(O)c2[nH]c(-c3cccs3)nc12` [Example 42, 7-Hydroxy-N-(piperidin-4-ylmethyl)-2-(thiophen-2-yl)-1H-benzo[d]imidazole-4-carboxamide] gave an IC50 of 100 nM.

As to `O=C(NCC1CNC1)c1ccc(O)c2[nH]c(-c3cccs3)nc12` [Example 43, N-(Azetidin-3-ylmethyl)-7-hydroxy-2-(thiophen-2-yl)-1H-benzo[d]imidazole-4-carboxamide], half-maximal inhibition (IC50) required 43 nM. Compared with the last compound, the IC50 is about 2.3-fold lower.

Regarding `O=C(NC1CCNC1)c1ccc(O)c2[nH]c(-c3cccs3)nc12` (centres unmarked) [Example 44, 7-Hydroxy-N-(pyrrolidin-3-yl)-2-(thiophen-2-yl)-1H-benzo[d]imidazole-4-carboxamide], the IC50 was found to be 110 nM.

Compound `O=C(NCC1CCCCN1)c1ccc(O)c2[nH]c(-c3cccs3)nc12` (centres unmarked) [Example 45, 7-Hydroxy-N-(piperidin-2-ylmethyl)-2-(thiophen-2-yl)-1H-benzo[d]imidazole-4-carboxamide] showed an IC50 of 240 nM.

For the compound `O=C(NCC1CCNC1)c1ccc(O)c2[nH]c(-c3cccs3)nc12` (centres unmarked) [Example 46, 7-Hydroxy-N-(pyrrolidin-3-ylmethyl)-2-(thiophen-2-yl)-1H-benzo[d]imidazole-4-carboxamide], the IC50 came out at 25 nM.

`N[C@H]1CC[C@H](NC(=O)c2ccc(O)c3[nH]c(-c4cccs4)nc23)CC1` [Example 47, N-(4-Aminocyclohexyl)-7-hydroxy-2-(thiophen-2-yl)-1H-benzo[d]imidazole-4-carboxamide]: the IC50 turned out to be 51 nM.

Compound `O=C(NCC1CCCNC1)c1ccc(O)c2[nH]c(C3CC4CCC3C4)nc12` (centres unmarked) [Example 48, 2-(Bicyclo[2.2.1]heptan-2-yl)-7-hydroxy-N-(piperidin-3-ylmethyl)-1H-benzo[d]imidazole-4-carboxamide] showed an IC50 of 68 nM.

Turning to `O=C(NC1CCCNC1)c1ccc(O)c2[nH]c(C3CC4CCC3C4)nc12` (centres unmarked) [Example 49, 2-(Bicyclo[2.2.1]heptan-2-yl)-7-hydroxy-N-(piperidin-3-yl)-1H-benzo[d]imidazole-4-carboxamide], the IC50 was found to be 230 nM. Compared with the last compound, the IC50 is about 3.4-fold higher.
